These results are taken from patent US10722529B2, “Modulation of NAD+ metabolic pathways for treatment of disease” (Temple University—Of The Commonwealth System of Higher …, priority 2015, dated 2020).

Entries after “also recorded” stand apart in the source; their conditions may differ.

One assay concerns IDO. The conditions noted are these: cited from earlier work.
Assay [1] concerns kynurenine to tryptophan ratio. Kind of assay: Plasma kynurenine to tryptophan ratio (KTR) in NR-treated rhesus macaques. In kind it is in vivo, rhesus macaque. The procedure: FIG. 8A depicts the KTR in SIV infected animals treated with different concentrations of NR. FIG. 8B depicts the KTR in uninfected animals treated with different concentrations of NR.
(§1) As described herein, an increase in the kynurenine to tryptophan ratios in the SIV macaque model was identified, with a positive correlation with viral load and soluble CD163 in plasma. […] In an effort to modulate the kynurenine pathway, and decrease tryptophan metabolism, a dose escalation study was performed with the NAD salvage pathway precursor, nicotinamide riboside (NR), in SIV infected macaques. […] This monocyte subset has been implicated in the pathogenesis of HIV infection, HAND, as well as other HIV associated comorbidities. […] The regulation of the kynurenine pathway appears to be complex, yet an attractive target for HIV therapeutics. Understanding the mechanism by which HIV modulates the kynurenine pathway could provide new therapeutic targets for the treatment of HIV and HAND.
Experiments were then conducted to examine if kynurenine to tryptophan ratios of SIV infected macaques correlate with sCD163 plasma level, ATP plasma level, and viral load. ELISA kits were used according to the manufacturer's directions to determine plasma concentrations of sCD163, kynurenine and tryptophan. Plasma ATP levels were analyzed using ATPLite assay. It was determined that kynurenine to tryptophan ratios increased in relations to higher viral loads (r=0.4774; p=0.0028) (FIG. 5A). Further, a positive correlation between kynurenine to tryptophan ratio and sCD163 plasma concentration was observed (r=0.473; p=0.0027) (FIG. 5B).

In assay [2] the test system is macrophage colony-stimulating factor (M-CSF). Kind of assay: M-CSF in NR treated macaques. In kind it is in vivo, rhesus macaque. The text has this:
FIG. 11 depicts experimental results showing that macrophage colony-stimulating factor (M-CSF) is reduced in NR treated macaques.

A further assay concerns SIV. Kind of assay: Viral load in SIV infected macaques treated with NR (latency reversal). In kind it is in vivo, rhesus macaque. The source says: Four SIV infected macaques were followed over time during chronic infection, two treated with combination anti-retroviral therapy (cART), and two non-treated.
For a further assay, the system named is human monocytes. Kind of assay: CD16 expression in human monocytes isolated from donor PBMCs in the presence of M-CSF. The settings on record: M-CSF treatment, in vitro. In kind it is cell-based. The text has this: FIG. 12 depicts the flow cytometry gating strategy used to separate two CD16 positive monocyte subsets.
FIG. 14 depicts the mean fluorescent intensity for CD16 expression in human monocytes isolated from donor PBMCs in the presence of M-CSF treatment.

Another assay has as its system CD4/CD8 ratio. As to the kind of experiment: CD4/CD8 ratio in NR dose escalation study in SIV infected macaques. Format: in vivo, rhesus macaque. The settings on record: SIV infected animals; highest dose (400 mg/kg). Here is the method: as §1
In a further assay the test system is CD14+/CD16+ monocytes. Kind of assay: Flow cytometry of CD14/CD16 on PBMC monocytes of NR-treated rhesus macaques. In kind it is in vivo, rhesus macaque. The settings on record: for CD16 expression on CD14+ monocytes (FACS dot plots): five seronegative and four seropositive macaques, before vs after NR. The procedure: PBMC from five seronegative and four seropositive rhesus macaques were analyzed after treatment with increasing concentrations of nicotinamide riboside (NR) over a 5-week period.
PBMC from five seronegative and four seropositive rhesus macaques were stained with antibodies to CD14 and CD16 and analyzed by flow cytometry after treatment with increasing concentrations of NR over a 5-week period. The mean fluorescence intensity (MFI) and percent frequency (% Freq) of CD16 was determined for each animal. […] One-way ANOVA was performed *P≤0.05; **P≤0.01; ***P≤0.001; n=9.
Experiments were then conducted to examine whether nicotinamide riboside treatment effects CD16 expression on CD14+ monocytes. PBMC from five seronegative and four seropositive rhesus macaques were analyzed after treatment with increasing concentrations of nicotinamide riboside (NR) over a 5-week period.
Experiments were then conducted to examine the effects of NR treatment on CD14 and CD16 expression. PBMC from five seronegative and four seropositive rhesus macaques were stained with antibodies to CD14 and CD16 and analyzed by flow cytometry after treatment with increasing concentrations of NR over a 5-week period. The mean fluorescence intensity (MFI) and percent frequency (% Freq) of CD16 was determined for each animal.
For orientation: Flow cytometry measures light scatter and fluorescence of single cells or particles in a stream.

For another assay, the system named is NAD+. Kind of assay: NAD+ concentration in PBMC of rhesus macaques treated with increasing NR over 5 weeks. The settings on record: SIV infected rhesus macaques, increasing concentrations of NR over a 5 week period. Format: in vivo, rhesus macaque. Here is the method: Peripheral blood mononuclear cells (PBMC) from five seronegative and four seropositive rhesus macaques were lysed and assayed for NAD+ concentration after treatment with increasing concentrations of nicotinamide riboside (NR) over a 5 week period. […] Paired T test and one way ANOVA was performed *P≤0.05; **P≤0.01 n=9.
Experiments were then conducted to examine the effect of nicotinamide riboside treatment on NAD+ levels in SIV infected animals. Peripheral blood mononuclear cells (PBMC) from five seronegative and four seropositive rhesus macaques were lysed and assayed for NAD+ concentration after treatment with increasing concentrations of nicotinamide riboside (NR) over a 5 week period.

Another assay relates to intracellular NAD+. The conditions noted are these: at micromolar concentrations; cited from earlier work.
The target of a further assay is CD38 (Homo sapiens, UniProt P28907). The settings on record: at micromolar concentrations; cited from earlier work.
Sequence of CD38 (P28907 whole entry, species assumed): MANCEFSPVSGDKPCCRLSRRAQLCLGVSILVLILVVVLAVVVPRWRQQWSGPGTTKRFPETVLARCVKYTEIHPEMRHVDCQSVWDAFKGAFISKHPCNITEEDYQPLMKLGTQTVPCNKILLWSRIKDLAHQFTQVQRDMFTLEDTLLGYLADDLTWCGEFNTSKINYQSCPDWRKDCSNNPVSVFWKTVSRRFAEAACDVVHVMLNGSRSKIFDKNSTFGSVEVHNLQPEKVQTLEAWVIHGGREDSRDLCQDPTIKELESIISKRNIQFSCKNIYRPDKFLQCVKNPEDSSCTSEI
For a further assay, the system named is HIV/AIDS. The conditions noted are these: prior to the advent of cART; cited from earlier work.
The subject of another assay is plasma tryptophan. The settings on record: HIV infected subjects, supplementation; cited from earlier work.
Assay [3] has as its system adipose tissue macrophage infiltration. The conditions noted are these: mice; cited from earlier work.
A further assay deals with HIV. The settings on record: in vitro and in patients; cited from earlier work.
Setting [4] is: listed as nicotinamide riboside.
The mark [5] stands for this setting: uninfected and SIV infected macaques, before vs after NR over 5 weeks.

On to `Cn1cc(C[C@H](N)C(=O)O)c2ccccc21` [1-methyl tryptophan], for which, in the assay with IDO (SIV/rhesus macaque model, IDO blockade), the “effect on tryptophan depletion or alterations in the kynurenine pathway” value is “incapable of affecting”. The “disturbance in K/T over-time” value in the assay on IDO (infected animals vs controls) is given as “increased the disturbance in K/T over-time in infected animals but not in controls”.

Consider `NC(=O)c1ccc[n+]([C@@H]2O[C@H](CO)[C@@H](O)[C@H]2O)c1` [NR, nicotinamide riboside], for which the “kynurenine to tryptophan ratio” value in assay [1] (SIV infected animals, 100 mg/kg dose) is given as “appeared to increase”. In addition, the “kynurenine to tryptophan ratio (KTR)” value is reported as “decreased; also recorded: decreases KTR” in [1] (SIV infected animals, different concentrations of NR) and “no significant impact” in [1] (uninfected (seronegative) animals, relative to pretreatment values). In addition, in assay [2], the M-CSF level entry was “reduces M-CSF; also recorded: reduced”. Further, the “function as latency reversing agent for SIV infection” value in the assay with SIV (SIV infected rhesus macaques) is given as “potential for NR to function as a latency reversing agent; also recorded: may function as a latency reversing agent”. Besides, the viral load entry in the assay on SIV (four SIV infected macaques, chronic infection, two on cART, two non-treated, all treated with NR) is listed as “evidence for viral load increase in all animals”. Further, the “viral load over time” value in the assay on SIV (the animal on cART with the lowest viral load) was “increase in viral load and then decrease over time”. Besides, the “CD16 monocyte subset expression” value with human monocytes was “inhibits CD16 monocyte expression induced by M-CSF; also recorded: reduces CD16 monocyte subset expression”. In addition, the CD4/CD8 ratio result with CD4/CD8 ratio is given as “decrease CD4/CD8 ratio”. For the same compound, the “CD16 expression on CD14+ monocytes (FACS dot plots)” value in the assay with CD14+/CD16+ monocytes is recorded as “decreased in all animals examined”; with CD14+/CD16+ monocytes (setting [4]), “significantly decreases”. Also, the “mean fluorescence intensity (MFI) of CD16 on CD14+/CD16+ monocytes” value in the assay with CD14+/CD16+ monocytes (setting [5]) is given as “significantly reduced; also recorded: significantly higher than after treatment; also recorded: significantly decreases”. Also, the “percent frequency of CD14+/CD16+ monocytes (% Freq of CD16)” value in the assay on CD14+/CD16+ monocytes (setting [5]) is “significantly reduced; also recorded: significantly decreases”. Besides, the “NAD+ concentration in PBMC” value with NAD+ is “significantly increased”; with NAD+ (setting [4]), “increases NAD+ levels”.

For `O=c1cc(-c2ccc(O)cc2)oc2cc(O)cc(O)c12` [apigenin], in the assay with intracellular NAD+, the “intracellular NAD+” value is “increase intracellular NAD+”. Further, the “inhibition of CD38 enzyme activity” value at CD38 is “inhibit CD38 enzyme activity”.

For `O=C(O)c1cccnc1` [niacin], in the assay with HIV/AIDS, the “delay of progression of HIV/AIDS” value is “some benefit in delaying the progression of HIV/AIDS”.

As to `NC(=O)c1cccnc1` [nicotinamide], the plasma tryptophan levels result in the assay on plasma tryptophan is “increases plasma tryptophan levels”.

`O=c1c(O)c(-c2ccc(O)c(O)c2)oc2cc(O)cc(O)c12` [quercetin]: the “intracellular NAD+” value in the assay on intracellular NAD+ is “increase intracellular NAD+”. The “inhibition of CD38 enzyme activity” value on CD38 is “inhibit CD38 enzyme activity”. For the same compound, in assay [3], the SIRT-1 activity entry is recorded as “increased SIRT-1 activity”; the “inflammatory cytokine levels in tissue and sera (TNFα, MCP-1, IL-6)” value is given as “reduced inflammatory cytokine levels”; the “obesity associated adipose tissue macrophage infiltration” value is “reduce obesity associated adipose tissue macrophage infiltration”.

Consider `O=C(CCCCCCC(=O)Nc1ccccc1)NO` [vorinostat], for which the “latency reversal on repeated dosages” value in the assay with HIV is reported as “diminishing returns over time”.
